{
  "source": "patent US20240350456A1",
  "about": "“COMPOSITIONS AND METHODS FOR DIAGNOSING AND TREATING INFLAMMATORY CONDITIONS” (RUTGERS, THE STATE UNIVERSITY OF NEW JERSEY, priority 2023, published 2024)",
  "key": {"[1]": {"tested_on": "polarized human Caco-2-BBE cells", "assay": "Nitric oxide production in polarized Caco-2-BBE cells", "type": "cell-based", "conditions": "24 h exposure, 5% LGG supernatant or single metabolites", "protocol": "Lastly, NOS2 activity was analyzed in cells treated with an LGG supernatant (orange bar, FIG. 15)."}, "ZO-1 (Tjp1) and Ocln": {"tested_on": "ZO-1 (Tjp1) and Ocln", "assay": "Intestinal organoids treated with LPS and metabolites: tight junction (TJ) expression, RT-qPCR and immunostaining", "type": "cell-based, mouse", "experimental": "(§1) Intestinal organoids were isolated as previously described (Das et al., 2015; Pearce et al., 2018). Briefly, crypts were isolated from small intestine of conventional house C57BL/6 male mice (Taconic Laboratories, Hudson, NY) by shaking in isolation buffer (2 mM EDTA in PBS), then, crypts were harvested, processed, and suspended in crypt culture medium (CCM), which consisted of advanced DMEM/F12 (Life Technologies, Carlsbad, CA) supplemented with serum-free B27 (1:50; Life Technologies), N2 (1:100; Life Technologies), N-acetylcysteine (1 mM; Sigma-Aldrich, St. Louis, MO), recombinant murine epithelial growth factor (EGF, 50 ng/ml; Peprotech, Rocky Hill, NJ), Noggin (100 ng/ml; Peprotech), R-Spondin (500 ng/ml; Peprotech), Glutamax-I supplement (1:100; Life Technologies), penicillin/streptomycin (500 μg/ml; Life Technologies), and HEPES ([…]; Life Technologies). Crypts were resuspended in 70% Matrigel (density ˜450 crypts per dome, 2 domes per well in 24-well plate) and allowed to solidify at 37° C. for 20 min. CCM (1.5 mL) was then added to each well. Cultures were incubated in a humidified incubator at 37° C., and CCM was changed daily. Intestinal organoid treatment with LPS and metabolites\n(§2) We had 2 series of metabolite-treated organoid experiments, i.e., 1) organoid from conventional C57BL6 mice and 2) Ocln KO and littermate WT control as a gift from Prof. Jerrold Turner (Harvard University). […] Seeding is designated as day 0. On day 3 of culture, the existing media in the wells were completely removed before adding treatments. LPS (1 μg/mL) with or without metabolites, i.e., IPA (0.1 mM) (Li et al., 2021), IAM (200 μM) (Vyhlidalova et al., 2020), MNA (12 ng/ml) (Liu et al., 2015), CARN (20 mM) (Boldyrev et al., 2013) or ASA (1 μM) (Erez et al., 2011) were each added in CCM at known physiological concentrations, incubated for 48 hours, thereafter, organoid was harvested for RNA extraction, and paraformaldehyde fixation for immunostaining.\n(§3) Total RNA was extracted from the intestinal organoids using a commercially available kit (RNeasy Microkit; Qiagen, MD, Cat. #74004) following manufacturer's instructions. mRNA samples were converted to cDNA using Bio-Rad's iScript Reverse Transcription Supermix for RT-qPCR (Bio-Rad Laboratories, Hercules, CA, Cat. #1708840). cDNA was then used for RT-qPCR (Mx3000P. Stratagene, La Jolla, CA) to analyze several genes using Maxima SYBR Green qPCR Master Mix (Thermo Fisher Scientific, Waltham, MA) and primers (Integrated DNA Technologies, Coralville, IA). Thermal profile for three-step cycling was 10 min at 95° C. for initial denaturation; then 40 cycles of 15 sec at 95° C. for denaturation, 30 sec at 65° C. for annealing, and 30 sec at 75° C. for extension. Primers used are as follows: β-actin (Actb), forward 5′-[…]-3′ (SEQ ID NO: 5), reverse 5′-[…]-3′ (SEQ ID NO: 6); ZO-1 (Tjp1), forward 5′-[…]-3′ (SEQ ID NO: 7), reverse 5′-[…]-3′ (SEQ ID NO: 8), Ocln, forward 5′-[…]-3′ (SEQ ID NO: 9), reverse 5′-[…]-3′ (SEQ ID NO: 10); Lyz1, forward 5′-ATGGCTACCGTGGTGTCAAG-3′ (SEQ ID NO: 11), reverse 5′-CGGTCTCCACGGTTGTAGTT-3′ (SEQ ID NO: 12); Tff3, forward 5′-TAATGCTGTTGGTGGTCCTG-3′ (SEQ ID NO: 13), reverse 5′-CAGCCACGGTTGTTACACTG-3′ (SEQ ID NO: 14). All samples were normalized to β actin expression. Gene expression levels are depicted as fold change relative to the control group.\n(§4) Immunocytochemistry followed earlier work (Pearce et al., 2018). Briefly, organoids were extracted from Matrigel by using cell recovery solution (Corning, Cat. No. 354253), processed then fixed in 4% paraformaldehyde for 15 min and dehydrated with 70% ethanol and kept in 4° C. until embedded in paraffin. On the day of embedding, organoids were gently spun down to a pellet (250 g for 5 min), then the supernatant was removed, the pellet resuspended in agarose and embedded in paraffin. […]"}, "[2]": {"tested_on": "Tff3 and Lyz1 (goblet and Paneth cells)", "assay": "Organoids: goblet and Paneth cell transcripts (Tff3, Lyz1) and cell numbers", "type": "cell-based, mouse", "conditions": "enteroids", "experimental": "as §2, §3, §4"}, "[3]": {"tested_on": "mouse intestinal organoids", "assay": "Organoid permeability assay with 4 kDa FITC-dextran, LPS with or without metabolites", "type": "cell-based", "conditions": "ex vivo organoids", "experimental": "as §1, §2\nPermeability assays followed earlier work (Pearce et al., 2018). Briefly, all media were removed and then organoid were incubated with CCM containing 4 kDa FITC-dextran (Sigma-Aldrich, St. Louis, MO, Cat. #46944) at a final concentration of 1.25 µM for 30 minutes at 37° C. and at 5% CO2. […] A fluorescent microscope (Nikon Eclipse TI, NY) at a 10× magnification was used to observe and capture the fluorescence within the lumen of the organoids. Using the same area as the lumen, three different background samples are measured randomly around the lumen. The three background samples measured are averaged and then subtracted from the measured fluorescence of the lumen. […] The quantification of the fluorescence was conducted using the ImageJ 1.53 (NIH, Bethesda, MD)."}, "[4]": {"tested_on": "human-derived Caco-2 cells", "assay": "In vitro transwell screening in Caco-2 cells, barrier disrupted by Clostridium difficile toxin (TEER and FITC-dextran permeability)", "type": "cell-based", "conditions": "applied in the basolateral compartment, TOX"}, "[5]": {"tested_on": "C57BL/6 mice with DSS-induced mild colitis", "assay": "DSS induced mild colitis treatment with LGG metabolites (2.5% DSS)", "type": "in vivo, mouse", "conditions": "metabolite i.p. twice", "experimental": "FIG. 13A-13M. IPA requires Ocln to alleviate LPS-induced leaky epithelium. FIG. 13A, experimental design. Organoids were derived from tamoxifen-inducible, intestine-specific Ocln-knockout (KO) mice generated by crossing a floxed Ocln^fl/fl with Villin-CreERT2 mice. FIG. 13B, Representative images and FIG. 13C, quantitative analysis of permeability assay. LPS was added to CCM media (basolateral side) with and without IPA […] and IAM (200 μM) (n=3 mice). *** P<0.001, compared with WT control, †P<0.05 compared with KO-control. FIG. 13D, Representative images of immunofluorescent staining of Ocln in WT control and Ocln KO conventional mice, L=lumen. MNA improves but ASA exacerbates dextran sodium sulfate (DSS)-induced leaky gut. FIG. 13E, experimental design, evaluation in vivo of metabolites (Met). Methylnicotinamide (MNA. […]) and L-argininosuccinate (ASA. 3.6 mg/kg) were administered (i.p.) twice 1-day before and 3 days after DSS treatment p.o. 4 kDa fluorescein isothiocyanate (FITC)-dextran was gavaged 4 h before sacrifice. FIG. 13F, body weight of DSS-treated mice with and without metabolites, FIG. 13G, representative images of Ocln-stained colon sections (green; left panel) and ECad (red; middle). Merged images (yellow; right panel) depict Ocln location in TJ of MNA-treated but not in DSS-only and ASA-treated colon (arrows). Quantitative fluorescent intensity of Ocln (FIG. 13H) and ECad (FIG. 13I) in the TJ, relative to DSS only controls. FIG. 13J, DSS scoring. FIG. 13K, representative H&E images of DSS, DSS+ MNA and DSS+ASA colon sections. FIG. 13L, In vivo permeability as determined by fluorescent intensity of FITC in serum. FIG. 13M, Serum level of interleukin-6.\nDSS induced mild colitis treatment with LGG metabolites. To assess in vivo impact of metabolites on gut barrier function, conventional C57BL/6 mice (8 weeks of age) were administered with 2.5% dextran sodium sulfate (DSS) in drinking water to induce mild colitis. Animals were intraperitoneal injected with either PBS vehicle, 30 mg/kg methylnicotinamide chloride, or 3.6 mg/kg argininosuccinic acid dissolved in sterile PBS at Day-1 and Day 4 of the experiment. Body weight was recorded daily. At Day 7, 4 hours before sacrifice and collection of blood, animals were gavaged with 600 mg/kg with 4 kDa FITC-dextran. Blood was collected in 5% EDTA and subsequently centrifuged at 3000 g for 5 minutes for plasma collection. FITC readings were collected by diluting 25 μl of plasma in 75 μl of PBS and analyzed using a Glomax (Promega, GMMTE9032) with Ex490/Em510-570 filter cube module. Serum concentration of interleukin-6 (Cat. No. Biolegend 431304) was also determined. Ileum and colon sections were collected, fixed in 4% paraformaldehyde, processed for embedding in paraffin wax. Pathohistology of intestine was observed by routine H&E staining."}, "[6]": {"tested_on": "leaky gut mouse model (DSS colitis)", "assay": "DSS (3%) leaky gut colitis mouse model, metabolites i.p.", "type": "in vivo", "conditions": "3% DSS; i.p. every other day; listed as ASA", "description": "A moderate amount of DSS (3%) creates a leaky gut model.\nFIG. 23A, Analysis of plasma ovalbumin levels after oral ovalbumin gavage in mice treated with exogenous MNA or PBS. […] Analysis of fecal lipocalin levels in mice treated with PBS or MNA with or without DSS. […] Representative histology sections of mice treated with PBS or MNA with or without DSS. FIG. 23D, quantification of mouse histology sections scored for colitis index.\nFIG. 24A, Analysis of zonula occludens (Tjp1) and occluding (Ocln) mRNA levels after treatment with PBS or MNA with or without DSS. FIG. 24B, Western blot analysis and quantification of Ocln protein levels after treatment with PBS or MNA with or without DSS. FIG. 24C, Quantified levels of occluding in the ileum (top) and colon (bottom) using immunofluorescence antibody staining.\nAdministration of DSS induces experimental colitis and disrupts gut barrier in vivo in animal models.\nExogenous MNA administration was assessed by plasma ovalbumin levels after oral ovalbumin gavage—an accepted method to determine permeability of the gut paracellular pathway. […] (FIG. 23B) Histology sections of mice treated with or without DSS and PBS or MNA were also obtained. […] Sections from several mice were also examined by a blinded observer and scored for colitis index.\n(FIG. 24B) Using immunofluoresce antibody staining, quantified levels of occludin in the ileum and colon were also analyzed."}, "ileal transcriptome": {"tested_on": "ileal transcriptome", "assay": "Germ-free mice monocolonized with LGG, trp+ or trp− diet: bulk RNA-sequencing of ileum", "type": "in vivo, mouse", "protocol": "Gnotobiotic study. After 5 days of acclimatization under GF conditions, two cages of GF mice (n=10) were fed with a trp-free diet and another 2 cages with a trp-sufficient diet. Purified diets were sterilized by double-irradiation (Research Diets, New Brunswick, NJ) then stored in −80° C. Two weeks afterward, five mice from the trp-deficient and five from trp-sufficient were gavaged with LGG and the remaining mice with sterile PBS. Body weight and food intake were recorded weekly. Fecal pellets were collected aseptically one week before, then one and three weeks post inoculation, then stored (−80° C.) for later analysis. Feces were also collected twice a week then analyzed immediately to monitor gnotobiotic status. All mice were sacrificed three weeks post inoculation, then serum, liver, ileum and colon collected.\nFor LGG colonization, one cage of GF trp− mice and one cage of GF trp+ were orally gavaged with 200 μl of LGG (10^8 CFU/ml) in sterile PBS (LGG trp− and LGG trp+, respectively) while control GF received 200 μl sterile PBS (PBS trp− and PBS trp+).\nTotal RNA was isolated from mouse ileum then purified with RNeasy Plus universal kit (Qiagen, Hilden, Germany) following manufacturer's instructions. […] For global assessment of mouse RNA levels, total RNA was subjected to two rounds of poly(A) selection using oligo (dT) 25 magnetic beads (New England Biolabs [NEB], Ipswich, MA). Illumina-compatible RNA-seq libraries were constructed using the NEBNext Ultra II RNA library prep with sample purification beads (Cat. No. E7775) and NEB Next Multiplex Oligos for Illumina (dual index primers set 1; Cat. No. E7600) according to the manufacturer's instructions. Poly(A) selection and library quality were assessed using TapeStation 2200 (Agilent Technologies, Santa Clara, CA), and libraries were quantified using Qubit 4.0 fluorometer (Thermo Fisher, Waltham, MA). The prepared libraries were sequenced on an Illumina NextSeq 500 instrument (Illumina, San Diego, CA). CLC Genomics Workbench version 20.0.4 (Qiagen, Venlo, Netherlands) was used for RNA-seq analysis. […]"}},
  "note": "“Also recorded” adds a separate entry of the source.",
  "data": [
    {"smiles": "N=C(N)NCCC[C@H](N)C(=O)O", "note": "[Arginine]", "values": [
      {"measurement": "NO production (fluorescence intensity)", "setting": "[1]", "result": "NO production increases"}
    ]},
    {"smiles": "NCCC(=O)N[C@@H](Cc1cnc[nH]1)C(=O)O", "note": "[Carnosine, carnosine]", "values": [
      {"measurement": "gene expression of Ocln", "setting": "ZO-1 (Tjp1) and Ocln; ex vivo, in the presence of the barrier disruptor", "result": "increased gene expression of Ocln"},
      {"measurement": "TJ expression at the protein and mRNA levels", "setting": "ZO-1 (Tjp1) and Ocln; in the presence of LPS (1 μg/mL), 48 hr", "result": "increased TJ expression"},
      {"measurement": "goblet and Paneth cell transcripts and cell numbers", "setting": "[2]", "result": "reduced goblet and Paneth cell transcripts as well as cell numbers"},
      {"measurement": "disruption of the gut barrier, fluorescence microscopy (FIG. 11M)", "setting": "[3]", "result": "prevented disruption of the gut barrier"}
    ]},
    {"smiles": "O=Cc1c[nH]c2ccccc12", "note": "[Indole-3-carboxaldehyde]", "values": [
      {"measurement": "TEER, indole metabolites", "setting": "[4]", "result": "more effective when applied in this compartment than in the luminal"}
    ]},
    {"smiles": "NC(=NCCC[C@H](N)C(=O)O)N[C@@H](CC(=O)O)C(=O)O", "note": "[L-arginino-succinate, L-argininosuccinic acid]", "values": [
      {"measurement": "TJ expression", "setting": "ZO-1 (Tjp1) and Ocln; metabolite alone, 48 hr", "result": "significantly reduced TJ expression"},
      {"measurement": "DSS-induced leaky gut (overall)", "setting": "[5]", "result": "exacerbates"},
      {"measurement": "E-cad abundance and localization in colonic epithelial cells", "setting": "[5]", "result": "appeared dispersed"},
      {"measurement": "Ocln expression in colonic epithelium", "setting": "[5]", "result": "reduction in Ocln expression"},
      {"measurement": "body weight", "setting": "[5]; vs DSS alone", "result": "greater tendency to lose weight"},
      {"measurement": "disruption of the gut barrier, fluorescence microscopy (FIG. 11M)", "setting": "[3]", "result": "disrupted the gut"},
      {"measurement": "body weight loss and recovery in DSS leaky gut model", "setting": "[6]", "result": "exacerbated the effects of DSS, and significantly delayed recovery; also recorded: exacerbates weight loss"}
    ]},
    {"smiles": "N[C@@H](Cc1c[nH]c2ccccc12)C(=O)O", "note": "[Tryptophan]", "values": [
      {"measurement": "number of ileal transcripts affected by dietary trp", "setting": "ileal transcriptome; GF mice", "result": 3917},
      {"measurement": "number of ileal transcripts affected by dietary trp", "setting": "ileal transcriptome; LGG mono-associated mice", "result": 5315},
      {"measurement": "number of transcripts affected solely by dietary trp with or without LGG", "setting": "ileal transcriptome; mouse, in vivo", "result": 1496}
    ]},
    {"smiles": "NC(=O)NCCC[C@H](N)C(=O)O", "note": "[citrulline]", "values": [
      {"measurement": "NO production (fluorescence intensity)", "setting": "[1]", "result": "NO production increases"}
    ]}
  ]
}
